Values of other authors, collected in patent US20060198906A1, “Compositions and Method to Increase Serum Levels of HDL cholesterol and Lower the Risk of Cardiovascular Disease” (SAMI LABS LIMITED, priority 2005, published 2006).

Conditions: dose range of 20-80 mg/day, clinical studies

SMILES: CC(C)c1nc(N(C)S(C)(=O)=O)nc(-c2ccc(F)cc2)c1/C=C/[C@@H](O)C[C@@H](O)CC(=O)O [Rosuvastatin]
- reduction of LDL levels: up to 65%
